From PubChem BioAssay (NCI) come the findings set out here.

Among the test systems are A498 renal; CCRF-CEM leukemia; HCT-116 colon; HCT-15 colon; HOP-62 NSCLC; NCI-H522 lung; RXF 393 renal; SF-268 CNS; SK-MEL-5 melanoma; UACC-257 melanoma.
Common to all, as to assay: NCI anticancer screen, dose series, 48 h

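Grown in 96-well plates, cells were treated for 48 hours with each compound at five concentrations. Insufficient inhibition: endpoint recorded as highest concentration tested. At the GI50, growth is halved. TGI: concentration producing complete growth inhibition.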 Some results are limits rather than exact numbers.

With `Nc1ncc(-c2ccc(C(F)(F)F)cc2)c(NC2CCCCCC2)n1`, the GI50 is 13.4 µM in the experiment on A498 renal; 15.4 µM with CCRF-CEM leukemia; 20.2 µM in the experiment on HCT-116 colon; 38.8 µM with HCT-15 colon; 54.7 µM in the experiment with HOP-62 NSCLC; 27.7 µM in the experiment with NCI-H522 lung. The GI50 in the experiment on RXF 393 renal was 16.1 µM; in the experiment on SF-268 CNS it was 48.4 µM; with SK-MEL-5 melanoma, 12.3 µM; in the experiment on UACC-257 melanoma, 22.3 µM. Moreover, the TGI in the experiment on A498 renal is 79.3 µM; in the experiment on CCRF-CEM leukemia it was 52.8 µM; in the experiment on HCT-116 colon, more than 100 µM; in the experiment with HCT-15 colon, more than 100 µM; in the experiment with HOP-62 NSCLC it was more than 100 µM; in the experiment on NCI-H522 lung, more than 100 µM. In addition, the TGI with RXF 393 renal was 88 µM; in the experiment with SF-268 CNS, more than 100 µM; in the experiment on SK-MEL-5 melanoma, 35 µM; in the experiment with UACC-257 melanoma it was more than 100 µM.

Turning to `O=c1[nH]nc2c3c(cccc13)NC(CN1Cc3ccccc3C1)=N2`, the GI50 was 4.7 µM with A498 renal; 4.42 µM with CCRF-CEM leukemia; 6.77 µM in the experiment with HCT-116 colon; 6.13 µM in the experiment with HCT-15 colon; 3.2 µM in the experiment on HOP-62 NSCLC; 2.77 µM with NCI-H522 lung. For the same compound, the GI50 in the experiment on RXF 393 renal was 3.79 µM; in the experiment with SF-268 CNS it was 7.4 µM; in the experiment with SK-MEL-5 melanoma, 8.42 µM; in the experiment with UACC-257 melanoma, 37 µM. The TGI in the experiment with A498 renal, in the experiment on CCRF-CEM leukemia, in the experiment with HCT-116 colon, with HCT-15 colon, in the experiment on HOP-62 NSCLC and with NCI-H522 lung was more than 100 µM throughout. Also, the TGI with RXF 393 renal was 74.1 µM; in the experiment on SF-268 CNS, more than 100 µM; in the experiment on SK-MEL-5 melanoma it was more than 100 µM; in the experiment on UACC-257 melanoma, more than 100 µM.

As for `CCc1nc2ccc(Cc3ccc(C(=O)NO)cc3)cc2c(=O)n1CCc1ccccc1`, the GI50 in the experiment with A498 renal is 0.364 µM; in the experiment with CCRF-CEM leukemia, 0.568 µM; with HCT-116 colon, 0.388 µM; in the experiment on HCT-15 colon, 0.528 µM; in the experiment on HOP-62 NSCLC, 1.32 µM; in the experiment on NCI-H522 lung, 0.302 µM. Further, the GI50 was 0.741 µM in the experiment with RXF 393 renal, 1.31 µM in the experiment on SF-268 CNS, 0.822 µM in the experiment with SK-MEL-5 melanoma and 0.64 µM with UACC-257 melanoma. Further, the TGI with A498 renal was 1.93 µM; in the experiment with CCRF-CEM leukemia it was more than 100 µM; in the experiment on HCT-116 colon, 1.57 µM; with HCT-15 colon it was 3.07 µM; with HOP-62 NSCLC, 2.86 µM; with NCI-H522 lung, 1.68 µM. Further, the TGI with RXF 393 renal was determined as 2.3 µM; with SF-268 CNS, 3.91 µM; in the experiment with SK-MEL-5 melanoma, 2.1 µM; in the experiment with UACC-257 melanoma, 2.47 µM.

With `CCC(C)/C=C(C)/C=C/C(=O)c1c(O)c(-c2ccc(O)cc2)c[nH]c1=O` (centres undefined), the GI50 is 2.03 µM in the experiment on A498 renal; 2.58 µM in the experiment with CCRF-CEM leukemia; 3.39 µM in the experiment with HCT-116 colon; 2.4 µM in the experiment on HCT-15 colon; 4.2 µM in the experiment on HOP-62 NSCLC; 3.3 µM in the experiment on NCI-H522 lung. Besides, the GI50 with RXF 393 renal is 1.96 µM; with SF-268 CNS, 3.19 µM; in the experiment with SK-MEL-5 melanoma it was 4.29 µM; with UACC-257 melanoma it was 4.25 µM. For the same compound, the TGI was 16.4 µM in the experiment on A498 renal; 19.7 µM in the experiment on CCRF-CEM leukemia; 13.1 µM in the experiment with HCT-116 colon; 12.6 µM with HCT-15 colon; 16.3 µM in the experiment with HOP-62 NSCLC; 10.8 µM in the experiment with NCI-H522 lung. In addition, the TGI with RXF 393 renal stood at 6.97 µM; in the experiment on SF-268 CNS, 14 µM; with SK-MEL-5 melanoma it was 16.7 µM; in the experiment with UACC-257 melanoma, 16.4 µM.

Take `CO/N=C1/NC(=O)/C(=C/c2ccc3ncccc3c2)S1`: the GI50 in the experiment with A498 renal was 3.41 µM; in the experiment with CCRF-CEM leukemia, 10.9 µM; in the experiment with HCT-116 colon it was 17.4 µM; in the experiment with HCT-15 colon, 9.13 µM; with HOP-62 NSCLC, more than 22.6 µM; in the experiment with NCI-H522 lung, 12.3 µM. The GI50 is 9.81 µM in the experiment with RXF 393 renal, more than 25 µM in the experiment on SF-268 CNS, more than 14.1 µM in the experiment on SK-MEL-5 melanoma and 18 µM in the experiment on UACC-257 melanoma. Moreover, the TGI with A498 renal was 11.5 µM; with CCRF-CEM leukemia it was more than 25 µM; in the experiment on HCT-116 colon it was more than 25 µM; with HCT-15 colon, more than 25 µM; with HOP-62 NSCLC it was more than 25 µM; in the experiment with NCI-H522 lung it was more than 25 µM. The TGI in the experiment with RXF 393 renal, in the experiment with SF-268 CNS, in the experiment with SK-MEL-5 melanoma and in the experiment on UACC-257 melanoma was more than 25 µM in each case.

As for `O=C(Nc1cc(Cl)ccc1O)c1cccc(NC2=C(Cl)C(=O)N(Cc3ccccc3)C2=O)c1`, the GI50 in the experiment on A498 renal is 25.8 µM; in the experiment with CCRF-CEM leukemia it was 2.14 µM; with HCT-116 colon it was 17.2 µM; in the experiment on HCT-15 colon, 13.3 µM; in the experiment with HOP-62 NSCLC, 26.7 µM; in the experiment on NCI-H522 lung, 11.2 µM. Also, the GI50 is 17.4 µM in the experiment with RXF 393 renal, 18.5 µM with SF-268 CNS, 17 µM in the experiment with SK-MEL-5 melanoma and 23.8 µM in the experiment with UACC-257 melanoma. Besides, the TGI in the experiment on A498 renal is more than 100 µM; with CCRF-CEM leukemia it was 11.5 µM; in the experiment with HCT-116 colon it was 31 µM; with HCT-15 colon, 27.6 µM; with HOP-62 NSCLC, 67.3 µM; in the experiment on NCI-H522 lung, 26.3 µM. In addition, the TGI in the experiment on RXF 393 renal stood at 45.1 µM; in the experiment on SF-268 CNS it was 38.2 µM; with SK-MEL-5 melanoma it was 31.5 µM; in the experiment on UACC-257 melanoma, 68.2 µM.

As for `COc1ccc(C(=O)c2cc(OC)c(OC)c(OC)c2)cc1O`, the GI50 with A498 renal was 1.4 µM; with CCRF-CEM leukemia it was 0.0308 µM; in the experiment on HCT-116 colon, 0.0376 µM; with HCT-15 colon, less than 0.01 µM; in the experiment with HOP-62 NSCLC, 0.0931 µM; with NCI-H522 lung it was less than 0.0164 µM. The GI50 in the experiment on RXF 393 renal was 0.0167 µM; with SF-268 CNS, 0.0613 µM; with SK-MEL-5 melanoma, 0.0439 µM; in the experiment with UACC-257 melanoma it was more than 100 µM. In addition, the TGI in the experiment on A498 renal is 5.7 µM; in the experiment with CCRF-CEM leukemia it was more than 100 µM; with HCT-116 colon, more than 100 µM; in the experiment on HCT-15 colon it was more than 100 µM; with HOP-62 NSCLC, more than 100 µM; in the experiment on RXF 393 renal, more than 100 µM. In addition, the TGI in the experiment with SF-268 CNS is more than 100 µM; in the experiment with SK-MEL-5 melanoma, 0.315 µM; in the experiment with UACC-257 melanoma, more than 100 µM.

In the case of `CC(=O)O[C@@H]1CC(C)C2CC2C2=C(C(O)OC2O)[C@@H]1C(C)CCC=C(C)C` (some centres undefined), the TGI with A498 renal is more than 100 µM; with CCRF-CEM leukemia it was 51.9 µM; with HCT-116 colon it was 32.7 µM; in the experiment on HCT-15 colon, 49.5 µM; in the experiment with HOP-62 NSCLC, 56 µM; with NCI-H522 lung it was 31.5 µM. Further, the TGI in the experiment on RXF 393 renal is 34.8 µM; in the experiment on SF-268 CNS, 65.5 µM; with SK-MEL-5 melanoma, 60.6 µM; in the experiment on UACC-257 melanoma, 62.9 µM.
